What follows are compounds tested on H1N1 (influenza A/New Caledonia/20/99) (assay: microbe, parasite or virus in culture). Settings: H1N1, A549, 48 h.
Type: cell-based

How did the IC50 turn out when `CC1(C)CCc2sc(NC(=O)c3ccc(N4CCC(O)CC4)cc3)c(C(=O)O)c21` [Compound #78, 2-[[4-(4-Hydroxy-1-piperidyl)benzoyl]amino]-4,4-dimethyl-5,6-dihydrocyclopenta[b]thiophene-3-carboxylic acid] was run?
The IC50 was 290 nM.

How did the IC50 turn out when `CC1(C)Cc2c(sc(NC(=O)c3ccc(N4CC5(COC5)C4)cc3)c2C(=O)O)C(C)(C)C1` [Compound #143, 5,5,7,7-Tetramethyl-2-[[4-(2-oxa-6-azaspiro[3.3]heptan-6-yl)benzoyl]amino]-4,6-dihydrobenzothiophene-3-carboxylic acid] was run?
The IC50 was 160 nM.

Which IC50 does the source give for `CC1(C)CCc2sc(NC(=O)c3ccc(NC4CCOCC4)cc3)c(C(=O)O)c2C1` [#161, 5,5-Dimethyl-2-[[4-(tetrahydropyran-4-ylamino)benzoyl]amino]-6,7-dihydro-4H-benzothiophene-3-carboxylic acid] here?
The IC50 was 15 nM.

Which IC50 does the source give for `COCCn1ccc(C(=O)Nc2sc3c(c2C(=O)O)CC(C)(C)CC3)n1` [#226, 2-[[1-(2-Methoxyethyl)pyrazole-3-carbonyl]amino]-5,5-dimethyl-6,7-dihydro-4H-benzothiophene-3-carboxylic acid] here?
Its IC50 is 820 nM.

Which IC50 does the source give for `COc1ccc(C(=O)Nc2sc3c(c2C(=O)O)C(C)(C)CC3)cc1OC` [Compound #38, 2-[(3,4-Dimethoxybenzoyl)amino]-4,4-dimethyl-5,6-dihydrocyclopenta[b]thiophene-3-carboxylic acid] here?
The IC50 was 339 nM.

`COCCCNc1ccc(C(=O)Nc2sc3c(c2C(=O)O)CC(C)(C)CC3(C)C)cc1` [Compound #140, 2-[[4-(3-Methoxypropylamino)benzoyl]amino]-5,5,7,7-tetramethyl-4,6-dihydrobenzothiophene-3-carboxylic acid] was tested. Which IC50 did it give?
Its IC50 is 3.4 nM.

`CC1(C)Cc2c(sc(NC(=O)c3ccc(N4CC(F)(F)C4)cc3)c2C(=O)O)C(C)(C)C1` [Compound #148, 2-[[4-(3,3-Difluoroazetidin-1-yl)benzoyl]amino]-5,5,7,7-tetramethyl-4,6-dihydrobenzothiophene-3-carboxylic acid] was tested. Which IC50 did it give?
The IC50 was 2.6 nM.

Which IC50 does the source give for `Cn1cc(C(=O)Nc2sc3c(c2C(=O)O)CC(C)(C)CC3(C)C)cn1` [#176, 5,5,7,7-Tetramethyl-2-[(1-methylpyrazole-4-carbonyl)amino]-4,6-dihydrobenzothiophene-3-carboxylic acid] here?
Its IC50 is 460 nM.

How did the IC50 turn out when `COC1CN(c2ccc(C(=O)Nc3sc4c(c3C(=O)O)CC(C)(C)CC4)cc2)C1` [#163, 2-[[4-(3-Methoxyazetidin-1-yl)benzoyl]amino]-5,5-dimethyl-6,7-dihydro-4H-benzothiophene-3-carboxylic acid] was run?
The IC50 was 18 nM.

How did the IC50 turn out when `CC1(C)Cc2c(sc(NC(=O)c3ccncn3)c2C(=O)O)C(C)(C)C1` [#205, 5,5,7,7-Tetramethyl-2-(pyrimidine-4-carbonylamino)-4,6-dihydrobenzothiophene-3-carboxylic acid] was run?
Its IC50 is 740 nM.

For `COc1ccc(C(=O)Nc2sc3c(c2C(=O)O)CCC2(CC2)C3)cc1OC` [Compound #30, 2-[(3,4-Dimethoxybenzoyl)amino]spiro[5,7-dihydro-4H-benzothiophene-6,1′-cyclopropane]-3-carboxylic acid], which IC50 is on record?
The IC50 was 70 nM.

For `O=C(Nc1sc2c(c1C(=O)O)CCC1(CC1)C2)c1ccc(N2CCOCC2)cc1` [Compound #31, 2-[(4-Morpholinobenzoyl)amino]spiro[5,7-dihydro-4H-benzothiophene-6,1′-cyclopropane]-3-carboxylic acid], which IC50 is on record?
The IC50 was 100 nM.

For `CC1(C)CCc2c(sc(NC(=O)c3ccc(F)cc3F)c2C(=O)O)C1` [Compound #17, 2-[(2,4-Difluorobenzoyl)amino]-6,6-dimethyl-5,7-dihydro-4H-benzothiophene-3-carboxylic acid], which IC50 is on record?
The IC50 was 260 nM.

`CC1(C)CCc2c(sc(NC(=O)c3ccc(N4CCOCC4)cn3)c2C(=O)O)C1` [#229, 6,6-Dimethyl-2-[(5-morpholinopyridine-2-carbonyl)amino]-5,7-dihydro-4H-benzothiophene-3-carboxylic acid] was tested. Which IC50 did it give?
Its IC50 is 370 nM.

How did the IC50 turn out when `CC1(C)CCc2sc(NC(=O)c3ccc(N4CCOCC4)cc3)c(C(=O)O)c2C1` [Compound #159, 5,5-Dimethyl-2-[(4-morpholinobenzoyl)amino]-6,7-dihydro-4H-benzothiophene-3-carboxylic acid] was run?
Its IC50 is 18 nM.

Which IC50 does the source give for `CC1(C)Cc2c(sc(NC(=O)c3ccc(NC4COC4)cc3)c2C(=O)O)C(C)(C)C1` [Compound #139, 5,5,7,7-Tetramethyl-2-[[4-(oxetan-3-ylamino)benzoyl]amino]-4,6-dihydrobenzothiophene-3-carboxylic acid] here?
The IC50 was 11 nM.

For `CN(c1ccc(C(=O)Nc2sc3c(c2C(=O)O)CC(C)(C)CC3)cc1)C1CCOCC1` [#160, 5,5-Dimethyl-2-[[4-[methyl(tetrahydropyran-4-yl)amino]benzoyl]amino]-6,7-dihydro-4H-benzothiophene-3-carboxylic acid], which IC50 is on record?
The IC50 was 6 nM.

Which IC50 does the source give for `CC1(C)CCc2c(sc(NC(=O)c3ccc(OC(F)F)cc3)c2C(=O)O)C1` [Compound #23, 2-[[4-(Difluoromethoxy)benzoyl]amino]-6,6-dimethyl-5,7-dihydro-4H-benzothiophene-3-carboxylic acid] here?
The IC50 was 80 nM.

For `CC1(C)CCc2c(sc(NC(=O)c3cnc(N4CCOCC4)cn3)c2C(=O)O)C1` [#230, 6,6-Dimethyl-2-[(5-morpholinopyrazine-2-carbonyl)amino]-5,7-dihydro-4H-benzothiophene-3-carboxylic acid], which IC50 is on record?
The IC50 was 420 nM.

For `COCC1CN(c2ccc(C(=O)Nc3sc4c(c3C(=O)O)CC(C)(C)CC4(C)C)cc2)C1` [#169, 2-[[4-[3-(Methoxymethyl)azetidin-1-yl]benzoyl]amino]-5,5,7,7-tetramethyl-4,6-dihydrobenzothiophene-3-carboxylic acid], which IC50 is on record?
The IC50 was 15.5 nM.

How did the IC50 turn out when `CC1(C)CCc2sc(NC(=O)c3ccnc(N4CCOCC4)c3)c(C(=O)O)c2C1` [#221, 5,5-Dimethyl-2-[(2-morpholinopyridine-4-carbonyl)amino]-6,7-dihydro-4H-benzothiophene-3-carboxylic acid] was run?
The IC50 was 380 nM.

Which IC50 does the source give for `CC1(C)Cc2c(sc(NC(=O)c3ccc(N4CCC5(CC4)COC5)cc3)c2C(=O)O)C(C)(C)C1` [Compound #144, 5,5,7,7-Tetramethyl-2-[[4-(2-oxa-7-azaspiro[3.5]nonan-7-yl)benzoyl]amino]-4,6-dihydrobenzothiophene-3-carboxylic acid] here?
Its IC50 is 35 nM.

— patent US11492347B2 (ENYO PHARMA, priority 2018, dated 2022)
